“And” between values parts separate entries of the source, which are not always exact repeats. Identical values can stand only once. Inconclusive results and toxic doses are left out. Rule as the data show it: active = T/C of 150% or more; inactive = T/C below 125%.
Tested on: L1210 leukemia ip in BDF1 mice, survival T/C
Assay: NCI In Vivo Anticancer Drug Screen. Data for tumor model L1210 Leukemia (intraperitoneal) in B6D2F1 (BDF1) mice
Settings: endpoint: mean survival time, higher = longer survival
In short: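 Read-out is survival time, reported as the treated-group measurement over the vehicle-control measurement.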

[1] = dose: 100.0 mg/kg/injection, schedule: Q01DX009 (ip), vehicle: saline with Tween-80
[2] = dose: 200.0 mg/kg/injection, schedule: Q01DX009 (ip), vehicle: saline with Tween-80
[3] = dose: 400.0 mg/kg/injection, schedule: Q01DX009 (ip), vehicle: saline with Tween-80
[4] = dose: 50.0 mg/kg/injection, schedule: Q01DX009 (ip), vehicle: Klucel (hydroxypropylcellulose) (HPC)
[5] = dose: 100.0 mg/kg/injection, schedule: Q01DX009 (ip), vehicle: Klucel (hydroxypropylcellulose) (HPC)
[6] = dose: 100.0 mg/kg/injection, schedule: Q04DX003 (ip), vehicle: Klucel (hydroxypropylcellulose) (HPC)
[7] = dose: 200.0 mg/kg/injection, schedule: Q01DX009 (ip), vehicle: Klucel (hydroxypropylcellulose) (HPC)
[8] = dose: 200.0 mg/kg/injection, schedule: Q04DX003 (ip), vehicle: Klucel (hydroxypropylcellulose) (HPC)
[9] = dose: 400.0 mg/kg/injection, schedule: Q04DX003 (ip), vehicle: Klucel (hydroxypropylcellulose) (HPC)
[10] = dose: 400.0 mg/kg/injection, schedule: Q01DX009 (ip), vehicle: Klucel (hydroxypropylcellulose) (HPC)
[11] = dose: 50.0 mg/kg/injection, schedule: Q01DX001 (ip), vehicle: carboxymethylcellulose (CMC)
[12] = dose: 100.0 mg/kg/injection, schedule: Q01DX001 (ip), vehicle: carboxymethylcellulose (CMC)
[13] = dose: 200.0 mg/kg/injection, schedule: Q01DX001 (ip), vehicle: carboxymethylcellulose (CMC)
[14] = dose: 400.0 mg/kg/injection, schedule: Q01DX001 (ip), vehicle: carboxymethylcellulose (CMC)
[15] = dose: 100.0 mg/kg/injection, schedule: Q01DX001 (ip), vehicle: saline
[16] = dose: 200.0 mg/kg/injection, schedule: Q01DX001 (ip), vehicle: saline

Measured: T/C

O=c1[nH]c2ccc(F)cc2c(=O)o1
inactive: dose: 75.0 mg/kg/injection, schedule: Q01DX009 (ip), vehicle: saline 107 % of control | dose: 150.0 mg/kg/injection, schedule: Q01DX009 (ip), vehicle: saline 93 % of control | dose: 300.0 mg/kg/injection, schedule: Q01DX009 (ip), vehicle: saline 94 % of control

O=S(=O)(O)C(O)c1cccc2ccccc12 (stereo unspecified)
inactive: [1] 105 % of control | [2] 105 % of control | [3] 115 % of control

Cc1ccc(S(=O)(=O)OCC(F)(F)C(F)(F)C(F)(F)C(F)(F)C(F)(F)C(F)(F)C(F)(F)F)cc1
inactive: dose: 100.0 mg/kg/injection, schedule: Q01DX009 (ip), vehicle: saline 94 % of control | dose: 200.0 mg/kg/injection, schedule: Q01DX009 (ip), vehicle: saline 88 % of control | dose: 400.0 mg/kg/injection, schedule: Q01DX009 (ip), vehicle: saline 93 % of control

O=C(O)c1ccc2c(c1)NC(c1cccc3ccccc13)NC2=O (stereo unspecified)
inactive: [4] 93 % of control | [5] 94 % of control | dose: 150.0 mg/kg/injection, schedule: Q01DX009 (ip), vehicle: Klucel (hydroxypropylcellulose) (HPC) 96 % of control

C(=N\OCCc1ccccc1)/c1cccnc1
inactive: dose: 100.0 mg/kg/injection, schedule: Q01DX009 (ip), vehicle: saline sonified 98 % of control | dose: 200.0 mg/kg/injection, schedule: Q01DX009 (ip), vehicle: saline sonified 100 % of control | dose: 400.0 mg/kg/injection, schedule: Q01DX009 (ip), vehicle: saline sonified 102 % of control

CN=C1N[N+]2=CCSCC2(C)S1 (stereo unspecified)
inactive: dose: 0.2 mg/kg/injection, schedule: Q03HX024 (ip), vehicle: saline 90 % of control | dose: 0.39 mg/kg/injection, schedule: Q03HX024 (ip), vehicle: saline 98 % of control | dose: 0.78 mg/kg/injection, schedule: Q03HX024 (ip), vehicle: saline 98 % of control | dose: 1.56 mg/kg/injection, schedule: Q03HX024 (ip), vehicle: saline 95 % of control | dose: 3.13 mg/kg/injection, schedule: Q03HX024 (ip), vehicle: saline 105 % of control

CN(Cc1ccccc1)Cc1ccccc1
inactive: [4] 100 % of control | [5] 100 % of control | [6] 97 % of control | [7] 92 % of control | [8] 97 % of control

NC(=O)/C=C/c1ccc([N+](=O)[O-])cc1
inactive: [6] 97 % of control | [8] 100 % of control | [9] 97 % of control

O=C(c1ccc(-c2ccccc2)cc1)C1CC1
inactive: [5] 97 % of control | [7] 97 % of control | [10] 91 % of control

O=C(Nc1cccc2ccccc12)c1ccccc1O
inactive: [11] 113 % of control | [12] 108 % of control | [13] 96 % of control | [14] 116 % of control

CCSC(=N)N=Nc1ccc(O)cc1
inactive: dose: 50.0 mg/kg/injection, schedule: Q01DX001 (ip), vehicle: saline 104 % of control | [15] 98 % of control | [16] 102 % of control

Clc1ccc(CSc2nc3ccccc3[nH]2)cc1
inactive: [5] 94 % of control | [7] 103 % of control | [10] 103 % of control

COC(=O)N1C2C=CC(C2)N1C(=O)OC
inactive: dose: 50.0 mg/kg/injection, schedule: Q01DX009 (ip), vehicle: DMSO 96 % of control | dose: 100.0 mg/kg/injection, schedule: Q01DX009 (ip), vehicle: DMSO 93 % of control | dose: 100.0 mg/kg/injection, schedule: Q04DX003 (ip), vehicle: DMSO 97 % of control | dose: 200.0 mg/kg/injection, schedule: Q04DX003 (ip), vehicle: DMSO 95 % of control

CC(=O)c1ccc(F)c(C)c1
inactive: dose: 100.0 mg/kg/injection, schedule: Q04DX003 (ip), vehicle: saline sonified 93 % of control | dose: 200.0 mg/kg/injection, schedule: Q04DX003 (ip), vehicle: saline sonified 97 % of control | dose: 400.0 mg/kg/injection, schedule: Q04DX003 (ip), vehicle: saline sonified 93 % of control

COC(=O)CN(c1c(C)cc(C)c(N)c1C)S(=O)(=O)c1ccccc1
inactive: dose: 100.0 mg/kg/injection, schedule: Q01DX001 (ip), vehicle: Klucel (hydroxypropylcellulose) (HPC) 95 % of control | [6] 96 % of control | dose: 200.0 mg/kg/injection, schedule: Q01DX001 (ip), vehicle: Klucel (hydroxypropylcellulose) (HPC) 103 % of control | [8] 100 % of control | dose: 400.0 mg/kg/injection, schedule: Q01DX001 (ip), vehicle: Klucel (hydroxypropylcellulose) (HPC) 97 % of control | [9] 107 % of control

CNCc1nc2ccccc2c(C)[n+]1[O-]
inactive: dose: 100.0 mg/kg/injection, schedule: Q04DX003 (ip), vehicle: saline 97 % of control | dose: 200.0 mg/kg/injection, schedule: Q04DX003 (ip), vehicle: saline 97 % of control | dose: 400.0 mg/kg/injection, schedule: Q04DX003 (ip), vehicle: saline 95 % of control

CCS(=O)(=O)c1ccc(NC(=O)OC(c2ccccc2)c2ccccc2)cc1
inactive: [12] 94 % of control | [13] 91 % of control | [14] 96 % of control

c1csc(-c2nc3ccccc3s2)c1
inactive: [1] 98 % of control | dose: 100.0 mg/kg/injection, schedule: Q04DX003 (ip), vehicle: saline with Tween-80 101 % of control | [2] 100 % of control | dose: 200.0 mg/kg/injection, schedule: Q04DX003 (ip), vehicle: saline with Tween-80 98 % of control | [3] 94 % of control | dose: 400.0 mg/kg/injection, schedule: Q04DX003 (ip), vehicle: saline with Tween-80 93 % of control

COc1ccc(OCC(=O)N2CCCCCC2)cc1
inactive: [11] 100 % of control | dose: 50.0 mg/kg/injection, schedule: Q01DX009 (ip), vehicle: carboxymethylcellulose (CMC) 94 % of control | dose: 50.0 mg/kg/injection, schedule: Q04DX003 (ip), vehicle: carboxymethylcellulose (CMC) 103 % of control | [12] 106 % of control | dose: 100.0 mg/kg/injection, schedule: Q01DX009 (ip), vehicle: carboxymethylcellulose (CMC) 94 % of control and 96 % of control | dose: 100.0 mg/kg/injection, schedule: Q04DX002 (ip), vehicle: carboxymethylcellulose (CMC) 91 % of control | dose: 100.0 mg/kg/injection, schedule: Q04DX003 (ip), vehicle: carboxymethylcellulose (CMC) 100 % of control | [13] 109 % of control | dose: 200.0 mg/kg/injection, schedule: Q01DX009 (ip), vehicle: carboxymethylcellulose (CMC) 97 % of control and 100 % of control | dose: 200.0 mg/kg/injection, schedule: Q04DX002 (ip), vehicle: carboxymethylcellulose (CMC) 105 % of control | dose: 200.0 mg/kg/injection, schedule: Q04DX003 (ip), vehicle: carboxymethylcellulose (CMC) 102 % of control | dose: 400.0 mg/kg/injection, schedule: Q04DX002 (ip), vehicle: carboxymethylcellulose (CMC) 96 % of control

Nc1ccc(CCCC(=O)Nc2ccc(S(=O)(=O)F)cc2)cc1
inactive: [15] 101 % of control | [16] 97 % of control | dose: 400.0 mg/kg/injection, schedule: Q01DX001 (ip), vehicle: saline 103 % of control

From PubChem BioAssay AID248 (DTP/NCI, 2004)
